Columns and labels:
Format in all cases: biochemical
HSD17B2 = target: T1, HSD17B2 (Homo sapiens, UniProt P37059); assay: Steroid substrate panel against HSD17B family member B2; settings: substrate at 50 μM; estradiol set as 100%
T1 construct: made in house
T1 sequence (P37059 1-387): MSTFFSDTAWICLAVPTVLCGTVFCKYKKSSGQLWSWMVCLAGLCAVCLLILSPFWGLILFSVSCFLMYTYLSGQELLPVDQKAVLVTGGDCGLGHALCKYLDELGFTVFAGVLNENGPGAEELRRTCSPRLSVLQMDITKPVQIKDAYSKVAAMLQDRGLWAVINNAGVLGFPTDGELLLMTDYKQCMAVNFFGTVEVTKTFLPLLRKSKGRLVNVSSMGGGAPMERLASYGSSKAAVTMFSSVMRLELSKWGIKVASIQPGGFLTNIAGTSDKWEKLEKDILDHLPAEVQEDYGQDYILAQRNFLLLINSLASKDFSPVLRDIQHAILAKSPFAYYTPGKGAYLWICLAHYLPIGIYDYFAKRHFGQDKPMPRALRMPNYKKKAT
Method: (§1) To understand the functional consequences of premature truncation of the HSD17B13 protein due to rs72613567:TA (the associated variant, rs72613567, is an insertion of an adenine adjacent to the donor splice site of exon six (TA allele)), the enzymatic activity of isoforms A and D was evaluated in vitro using recombinant protein and nicotinamide […] dinucleotide as cofactor. Reactions were performed in a final volume of 40 μl of assay buffer (0.2 M Tris-HCl, pH 7.5) which contained 500 μM NAD^+, 5 μM bioactive lipid or 50 μM steroid (all in a final concentration of 5% DMSO), and 100 ng of recombinant human HSD17B13. Reactions were incubated for 3 hours, at 23° C., after which an equal volume detection reagent was added. Following a 1 hour incubation at 23° C., the relative light units (RLUs) were measured on an Envision Plate Reader (Perkin Elmer). Raw RLU values were normalized as percent of control (50 μM estradiol) following subtraction of negative control (5% DMSO) using the following formula: Percent of control (POC)=100×(Sample (RLU)−Negative CTRLaverage)/(Positive CTRLaverage−Negative CTRLaverage).
(§2) In order to determine specificity of compounds with inhibitory activity against HSD17B13, assays for selected members of the HSD17B family which includes HSD17B1-HSD17B14 were established. As a first step, selected family members were expressed, purified and tested for activity a using a steroid substrate panel. Substrates from the steroid panel were tested at 50 μM, using the standard assay protocol. Activity against the substrates for each HSD17B family member were normalized to Percent of Control (POC). The control, estradiol, was set as 100%.

HSD17B5 = target: T2, HSD17B5 (Homo sapiens, UniProt P42330); assay: Steroid substrate panel against HSD17B family member B5; settings: substrate at 50 μM; estradiol set as 100%
T2 construct: made in house
T2 sequence (P42330 1-323): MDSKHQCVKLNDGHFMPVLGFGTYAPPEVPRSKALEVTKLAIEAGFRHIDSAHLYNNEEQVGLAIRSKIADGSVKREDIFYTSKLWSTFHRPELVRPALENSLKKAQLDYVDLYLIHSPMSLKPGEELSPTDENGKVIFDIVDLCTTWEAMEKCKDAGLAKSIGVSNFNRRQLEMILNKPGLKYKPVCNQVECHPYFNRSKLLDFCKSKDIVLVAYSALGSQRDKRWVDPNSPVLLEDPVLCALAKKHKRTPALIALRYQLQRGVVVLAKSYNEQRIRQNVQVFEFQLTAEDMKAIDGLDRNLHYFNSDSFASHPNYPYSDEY
Method: as §1, §2

HSD17B4 = target: T3, HSD17B4 (Homo sapiens, UniProt P51659); assay: Steroid substrate panel against HSD17B family member B4; settings: substrate at 50 μM; estradiol set as 100%
T3 construct: made in house
T3 sequence (P51659 1-736): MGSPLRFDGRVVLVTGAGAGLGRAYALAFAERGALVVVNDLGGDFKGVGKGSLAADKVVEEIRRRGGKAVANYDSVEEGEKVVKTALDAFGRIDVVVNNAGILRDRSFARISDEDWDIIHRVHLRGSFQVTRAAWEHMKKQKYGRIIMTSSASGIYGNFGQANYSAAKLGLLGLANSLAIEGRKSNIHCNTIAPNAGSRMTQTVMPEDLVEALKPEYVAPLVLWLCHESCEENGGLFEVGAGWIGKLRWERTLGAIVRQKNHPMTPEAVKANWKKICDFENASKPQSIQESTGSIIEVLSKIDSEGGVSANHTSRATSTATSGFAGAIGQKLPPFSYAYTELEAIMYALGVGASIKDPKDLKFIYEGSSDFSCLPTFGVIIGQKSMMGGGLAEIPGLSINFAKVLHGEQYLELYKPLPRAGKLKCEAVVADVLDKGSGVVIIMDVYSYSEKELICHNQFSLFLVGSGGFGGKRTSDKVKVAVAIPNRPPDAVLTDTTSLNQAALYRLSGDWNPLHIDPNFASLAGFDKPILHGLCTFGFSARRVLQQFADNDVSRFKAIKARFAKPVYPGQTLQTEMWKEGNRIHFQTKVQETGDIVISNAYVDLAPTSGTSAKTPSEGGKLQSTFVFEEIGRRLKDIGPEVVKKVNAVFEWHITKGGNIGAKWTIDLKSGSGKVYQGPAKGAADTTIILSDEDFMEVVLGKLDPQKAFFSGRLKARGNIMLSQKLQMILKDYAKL
Method: as §1, §2

HSD17B11 = target: T4, HSD17B11 (Homo sapiens, UniProt Q8NBQ5); assay: Steroid substrate panel against HSD17B family member B11; settings: substrate at 50 μM; estradiol set as 100%
T4 construct: made in house
T4 sequence (Q8NBQ5 20-300): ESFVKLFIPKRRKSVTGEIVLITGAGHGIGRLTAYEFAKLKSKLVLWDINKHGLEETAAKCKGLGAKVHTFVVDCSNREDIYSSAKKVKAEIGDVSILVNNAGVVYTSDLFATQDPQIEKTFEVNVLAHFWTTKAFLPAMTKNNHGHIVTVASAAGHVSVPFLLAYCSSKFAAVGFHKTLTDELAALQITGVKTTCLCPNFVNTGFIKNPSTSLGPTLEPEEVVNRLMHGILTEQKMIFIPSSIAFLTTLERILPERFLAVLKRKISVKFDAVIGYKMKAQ
Method: as §1, §2

HSD17B1 = target: T5, HSD17B1 (Homo sapiens, UniProt P14061); assay: Steroid substrate panel against HSD17B family member B1; settings: substrate at 50 μM; estradiol set as 100%
T5 construct: made in house
T5 sequence (P14061 1-328): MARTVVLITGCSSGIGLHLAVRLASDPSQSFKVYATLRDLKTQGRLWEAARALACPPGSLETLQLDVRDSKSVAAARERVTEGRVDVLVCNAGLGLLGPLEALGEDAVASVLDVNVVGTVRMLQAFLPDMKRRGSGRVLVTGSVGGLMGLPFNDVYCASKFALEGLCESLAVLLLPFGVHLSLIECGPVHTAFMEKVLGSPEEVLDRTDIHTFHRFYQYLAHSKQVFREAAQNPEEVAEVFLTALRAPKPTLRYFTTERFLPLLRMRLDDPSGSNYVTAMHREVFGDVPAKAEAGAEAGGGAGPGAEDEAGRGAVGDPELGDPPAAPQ
Method: as §1, §2

HSD17B10 = target: T6, HSD17B10 (Homo sapiens, UniProt Q99714); assay: Steroid substrate panel against HSD17B family member B10; settings: substrate at 50 μM; estradiol set as 100%
T6 construct: made in house
T6 sequence (Q99714 1-261): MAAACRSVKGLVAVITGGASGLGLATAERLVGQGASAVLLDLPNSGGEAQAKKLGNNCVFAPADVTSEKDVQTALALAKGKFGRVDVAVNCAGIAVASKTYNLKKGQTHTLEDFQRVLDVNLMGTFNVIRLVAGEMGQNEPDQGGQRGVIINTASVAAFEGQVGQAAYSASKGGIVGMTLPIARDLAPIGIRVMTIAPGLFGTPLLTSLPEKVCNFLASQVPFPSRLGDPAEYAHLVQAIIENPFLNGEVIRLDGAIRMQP
Method: as §1, §2

human HSD17B13 = target: T7, human HSD17B13 (Homo sapiens, UniProt Q7Z5P4); assay: Substrate screening of steroid and bioactive lipid libraries against purified recombinant HSD17B13 (NADH-linked luciferase assay); settings: Steroid Library, 50 μM steroid; for HSD17B13 Enzymatic Activity Relative Light Units: 500 μM NAD+, 100 ng enzyme, 3 hours at 23° C.; for HSD17B13 Enzymatic Activity Percent Estradiol Control: normalized to 50 μM estradiol after subtraction of 5% DMSO
T7 sequence (Q7Z5P4 20-300): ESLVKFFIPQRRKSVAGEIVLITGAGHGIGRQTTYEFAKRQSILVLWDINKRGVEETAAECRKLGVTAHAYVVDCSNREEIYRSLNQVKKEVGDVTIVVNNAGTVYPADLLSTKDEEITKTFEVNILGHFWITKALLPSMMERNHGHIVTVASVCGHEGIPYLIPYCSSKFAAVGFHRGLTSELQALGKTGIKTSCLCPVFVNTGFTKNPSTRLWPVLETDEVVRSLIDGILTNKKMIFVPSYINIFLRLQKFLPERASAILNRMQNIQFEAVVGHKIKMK
Outline: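 Substrates (bioactive lipids 5 μM, steroids 50 μM; 5% DMSO) tested with 500 μM NAD+ and 100 ng recombinant human HSD17B13 in 0.2 M Tris-HCl pH 7.5, 3 h, 23° C. Luminescent NADH detection followed 1 h later; RLU normalized to estradiol (50 μM, 100%) and DMSO (0%) controls.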

Row | Structure (SMILES) | Percent of Control (POC), B2 (HSD17B2) [%] | Percent of Control (POC), B5 (HSD17B5) [%] | Percent of Control (POC), B4 (HSD17B4) [%] | Percent of Control (POC), B11 (HSD17B11) [%] | Percent of Control (POC), B1 (HSD17B1) [%] | Percent of Control (POC), B10 (HSD17B10) [%] | HSD17B13 Enzymatic Activity Relative Light Units (human HSD17B13) [RLU] | HSD17B13 Enzymatic Activity Percent Estradiol Control (human HSD17B13) [%]
1 | C[C@]12CC[C@@H](O)C[C@@H]1CC[C@@H]1[C@@H]2CC[C@]2(C)[C@@H](O)CC[C@@H]12 [3a-androstanediol] | 6.2 | 196 | 16.4 | 0.0 | 0.0 | −0.4 | – | –
2 | C[C@]12CC[C@@H](O)C[C@@H]1CC[C@@H]1[C@@H]2[C@@H](O)C[C@@]2(C)[C@H]1CC[C@]2(O)C(=O)CO [5alpha-Tetrahydrocortisol] | 3.1 | 0 | 0.2 | 0.0 | −0.1 | 46.3 | 229040 | 1.20
3 | C[C@]12CC[C@H](O)C[C@@H]1CC[C@@H]1[C@@H]2CC[C@]2(C)[C@@H](O)CC[C@@H]12 [5alpha-androstane-3beta,17beta-diol] | 42.5 | 0 | 38.9 | 0.0 | 0.3 | 1.2 | 398600 | 4.16
4 | CC[C@H]1[C@@H](O)[C@@H]2[C@H](CC[C@]3(C)[C@@H]([C@H](C)CCC(=O)O)CC[C@@H]23)[C@@]2(C)CC[C@@H](O)C[C@@H]12 [6-ethylchenodeoxycholic acid] | 0.1 | 192 | 4.6 | 0.0 | 0.0 | 39.3 | 76200 | −1.47
5 | C[C@]12CC[C@@H](O)C[C@@H]1CC[C@@H]1[C@@H]2C(=O)C[C@]2(C)C(=O)CC[C@@H]12 [11-oxo-androsterone] | 0.0 | 0 | 0.4 | 0.0 | 0.0 | 31.4 | 196640 | 0.63
6 | C[C@]12CC[C@@H](O)C[C@H]1CC[C@@H]1[C@@H]2C(=O)C[C@]2(C)C(=O)CC[C@@H]12 [11-oxo-etiocholanolone] | 0.0 | 13 | 0.2 | 0.0 | −0.1 | 30.7 | 195960 | 0.62
7 | C[C@]12CC[C@@H](O)C[C@@H]1CC[C@@H]1[C@@H]2CC[C@]2(C)C(=O)[C@H](O)C[C@@H]12 [16alpha-Hydroxyandrosterone] | 1.5 | 45 | 0.5 | 0.0 | 0.0 | 69.7 | 221840 | 1.07
8 | C[C@]12CC[C@@H](O)C[C@@H]1CC[C@@H]1[C@@H]2CC[C@]2(C)C(=O)CC[C@@H]12 [Androsterone] | 1.0 | 0 | 0.3 | 0.0 | 0.0 | 91.0 | 158120 | −0.04
9 | CC(=O)OCC(=O)[C@H]1CC[C@H]2[C@@H]3CCC4=CC(=O)CC[C@]4(C)[C@H]3[C@@H](O)C[C@]12C [Corticosterone 21-acetate] | 0.0 | 0 | 0.1 | 32.2 | −0.1 | 0.3 | 190160 | 0.52

Source: US11479802B2, “Assays for screening activity of modulators of members of the hydroxy steroid (17-beta) dehydrogenase (HSD17B) family” (Regeneron Pharmaceuticals, Inc., priority 2017, dated 2022)
